The numbers were not newly measured in patent US11718832B2, “Method to reduce oncogenic potential of induced pluripotent stem cells from aged donors” (MEMORIAL SLOAN-KETTERING CANCER CENTER, priority 2014, dated 2023), which cites them from elsewhere.

This data set has as its system GSS. The settings on record: literature.
In the case of `[N-]=[N+]=CC(=O)OC[C@H](N)C(=O)O` [azaserine], the “Inhibition of GSS” value is given as “inhibit GSS”. `[N-]=[N+]=CC(=O)CC[C@H](N)C(=O)O` [6-Diazo-5-oxo-L-norleucine]: the “Inhibition of GSS” value is listed as “inhibit GSS”. Turning to `CCCCS(=N)(=O)CCC(N)C(=O)O` (stereo not drawn) [buthionine sulfoximine], the “Inhibition of GSS” value was “inhibit GSS”.
